Like-named read-outs stand apart in the source and are kept apart here. Peptide text beside a SMILES is read from it. * marks the point of attachment. Cbz = O=C(OCc1ccccc1)*
Legend:
[1] = system: non-senescent WI-38 cells (NC); assay: Cell viability (PI flow cytometry), LD50 in non-senescent WI-38 cells; type: cell-based, human
Protocol: (§1) Mouse embryonic fibroblasts (MEF) were isolated from mouse embryos as described^1. All cells were cultured in a complete medium (CM) (Dulbecco's Modified Eagle Medium supplemented with 10% fetal bovine serum [FBS], 100 U/ml penicillin, and 100 μg/ml streptomycin [all from Atlanta Biologicals, Norcross, Ga., and USA]) in a humidified incubator at 37° C. and 5% CO2. Low passages of WI-38 cells (<25), IMR-90 (<25), REC cells (<25) and MEF (<3) were used as non-senescent controls or for induction of senescence to avoid replicative senescence. […] To induce senescence by expression of oncogenic Ras (Ras^V12), WI-38 cells were infected with the retroviruses pBabe-H-Ras or pBabe-puro (control) (Addgene, Cambridge, Mass., UAS)^2, 3. […] Senescent cells were maintained in culture for a few days, changing the culture medium every 3 days until use. For in vitro cell culture experiments, we usually repeated the experiments for at least three times to ensure the reproducibility of the data. In addition, the repeats of the experiments for three times will allow us to obtain 3 independent observations for statistical analysis.
(§2) Flow cytometry: Non-senescent and senescent cells were seeded into wells of 24- or 48-well at about 70% of confluence. […] Both quiescent non-senescent cells and permanently growth arrested senescent cells were treated with vehicle (0.1% DMSO or PBS) or increasing concentrations of the compounds listed in Table 1 for various durations. […] After incubated with propidium iodide (PI 100 ng/ml) in PBS at room temperature for 1 min, cells were centrifuged at 1200 rpm for 6 min and then resuspended in PBS with 2% of FBS for analysis by a BD LSR II flow cytometer (BD Biosciences, San Jose, Calif., USA). Viable cells (PI^− cells) were numerated by flow cytometry at a constant flow rate and calculated as a percentage of control cells treated with vehicle using the formula: percentage of control=(Ndrug/NC)×100, where Ndrug and NC represent the absolute number of PI^− viable cells of drug-treated and vehicle-treated cells, respectively.
(§3) MTT (3-[4,5-dimethylthiazol-2-yl]-2,5 diphenyl tetrazolium bromide) assay: Cells were harvested, washed and resuspended in CM and added to wells of 24- or 48-well plates as described above. […] After 4 h at 37° C., the formazan was solubilized by lysing the cells with 300 μl of DMSO. Absorbance of formazan was measured at 595 nm using a Microplate Reader (BioTek, Winooski, Vt., USA). Cell viability was calculated in the method as previously described^4.
(§4) Trypan blue exclusion assay: Cells were harvested, washed and resuspended in CM and added to wells of a 6-well plate as described above. […] Living cells stained negative for trypan blue and were counted under light microscopy.
(§5) Briefly, Probit (set as y) was determined by looking up their correspondence to the % responded in Finney's table. The log of the compound concentrations was used as x. By fitting a line of regression, we produce the formula y=ax+b.

[2] = system: IR-induced senescent WI-38 cells (SC); assay: Cell viability (PI flow cytometry), LD50 in IR-induced senescent WI-38 cells; type: cell-based, human; details: for LD50 Ratio (NC/SC): non-senescent vs IR-induced senescent WI-38 cells
Protocol: as §1, §2, §3, §4, §5

[3] = system: senescent cells in TBI p16-3MR mice; assay: Senescent cell clearance in TBI p16-3MR mice (luminescence, p16 mRNA); type: in vivo, mouse; details: 6 Gy TBI; 2 treatment cycles
Protocol: ABT was given by gavage at 50 mg/kg/d for 7 d per cycle for 2 cycles with a 2-wk interval. GCV was given to the mice by ip injection at 25 mg/kg/d for 5 d per cycle for 2 cycles with a 2-wk interval. […] The mice were euthanized the day after the imaging by CO2 inhalation and followed by cervical dislocation. Tissues were harvested for immediate tissue luminescence imaging as described below or RNA extraction for analyses of p16, IL-1α, CCL-5, and CXCL-10 mRNA levels by qRT-PCR.
For in vivo luminescence, mice were injected i.p. with 250 μl of Xenolight RediJect Coelenterazine h (100 μg/mL, Calipers-PerkinElmer, Waltham, Mass., USA). The mice were anesthetized with 4% isoflurane gas at 1 L/minute oxygen flow 5 min after the injection. Luminescence images were acquired using a Xenogen IVIS-200 Optical In Vivo imaging System equipped with a Living Image Version 4.3.1 (Caliper Life Sciences, Hopkinton Mass., USA). Mice were oriented in a supine position in the scanner. […]
For tissue luminescence imaging, after harvested from euthanized mice, tissues were immediately soaked in pre-warmed (37° C.) PBS with 2% FBS and 1:10 dilution of Xenolight RediJect Coelenterazine h for 10 min. They were transferred into a new 35-mm dish and luminescence images were taken 12-15 min after soaking in the substrate solution using a Xenogen IVIS-200 Optical In Vivo imaging System. […]

[4] = system: IL-1α, TNFα, CCL-5, CXCL-10 mRNA; assay: SASP mRNA levels in lungs of TBI p16-3MR mice (qRT-PCR); type: in vivo, mouse; details: 6 Gy TBI; 2 treatment cycles
Protocol: To measure p21 and GAPDH mRNA levels in WI-38 cells and IL-1α, TNFα, CCL-5, and CXCL-10 mRNA levels in mouse tissues, SYBR assay kit was used (Applied biosystems in life technologies). Briefly, 1 μl cDNA was mixed with 7.5 μl SYBR Green PCR Master Mix and 0.2 μl of primers (Table 5). Samples were then added with 6.30 μl of H2O to give a total 15 μl of mixture. qPCR conditions were as follows: 95° C. for 10 min, 40×(95° C. for 15 s and 60° C. for 1 min), 95° C. for […], 95° C. for 15 min. All reactions were run in triplicate on an ABI StepOnePlus Real-Time PCR System.

[5] = system: wild-type or p16-3MR mice; details: at the doses used; cited from earlier work
[6] = Homo sapiens, WI-38 fibroblasts, non-senescent, LD50 by Probit Analysis, read-out: LD50 (μM) for non-senescent cells (NC)
[7] = Homo sapiens, WI-38 fibroblasts, IR-induced senescent, LD50 by Probit Analysis, read-out: LD50 (μM) for senescent cells (SC)
[8] = WI-38 fibroblasts, non-senescent, LD50 by Probit Analysis, read-out: LD50 (μM) for non-senescent cells (NC)
[9] = WI-38 fibroblasts, IR-induced senescent, LD50 by Probit Analysis, read-out: LD50 (μM) for senescent cells (SC)
[10] = Homo sapiens, WI-38, read-out: LD50 (μM) for non-senescent cells (NC)
[11] = Homo sapiens, WI-38, read-out: LD50 (μM) for senescent cells (SC)

Compound | CC50 [1, 6] [µM] | IC50 [2, 7] [µM] | LD50 Ratio (NC/SC) [2] | CC50 [1, 8] [µM] | IC50 [2, 9] [µM] | further results
O=CC[C@@H](O)[C@H](O)[C@H](O)CO [2-Deoxy-D-glucose] | 4800 | 8890 | 0.5 |  |  | 
O=C(O)C(=O)CBr [3-bromopyruvate] |  |  | 0.8 | 280.00 | 370.00 | 
CC1(C)CCC(CN2CCN(c3ccc(C(=O)NS(=O)(=O)c4ccc(NCC5CCOCC5)c([N+](=O)[O-])c4)c(Oc4cnc5[nH]ccc5c4)c3)CC2)=C(c2ccc(Cl)cc2)C1 [ABT199] | > 10 | > 10 |  |  |  | selective killing of SCs (viable WI-38 cells, NC vs IR-SC) ([2]; 5 μM ABT199, 0.5 μM WEHI539, or both, 72 h): did not selectively kill SCs
CC(=O)OC[C@H]1O[C@@H]([S-])[C@H](OC(C)=O)[C@@H](OC(C)=O)[C@@H]1OC(C)=O.CCP(CC)CC.[Au+] [Auranofin] |  |  | 1.0 | 5.13 | 5.34 | 
Cc1ccc2nc(NCCN)c3ncc(C)n3c2c1 [BMS345541] | 6.87 | 10.8 | 0.6 |  |  | 
CC(C)C[C@H](NC(=O)[C@H](Cc1ccccc1)NC(=O)c1cnccn1)B(O)O [Bortzomib] |  |  | 0.7 | 0.016 | 0.024 | 
CCCCS(=N)(=O)CCC(N)C(=O)O (stereo not shown) [Buthionine sulfoximine] | 2340 | 2390 | 1.0 |  |  | 
O=C(O)CCCCC(CCSCc1ccccc1)SCc1ccccc1 (stereo not shown) [CPI-613] | 223 | 205 | 1.1 |  |  | 
CCCCCCCCCC[P+](c1ccccc1)(c1ccccc1)c1ccccc1 [Decyl-triphenylphosphonium] |  |  | 1.4 |  |  | CC50 [1, 10]: 1.41 µM; IC50 [2, 11]: 0.98 µM
C[C@]12CC[C@H](O)CC1=CC[C@@H]1[C@@H]2CC[C@]2(C)C(=O)CC[C@@H]12 [Dehydroepiandrosterone] | 296 | 510 | 0.6 |  |  | 
CNCCCN1c2ccccc2CCc2ccccc21 [Despramine] |  |  | 1.0 | 50.03 | 51.13 | 
CS[C@H]1SC[C@H]2C(=O)N(C)[C@@H](C(C)C)C(=O)OC[C@@H](NC(=O)c3cnc4ccccc4n3)C(=O)N[C@@H](C)C(=O)N(C)[C@@H]1C(=O)N(C)[C@@H](C(C)C)C(=O)OC[C@@H](NC(=O)c1cnc3ccccc3n1)C(=O)N[C@@H](C)C(=O)N2C [Echinomycin] |  |  | 0.2 |  |  | CC50 [1, 10]: 0.42 µM; IC50 [2, 11]: 2.86 µM
Nc1nc(O)c2ncn(COC(CO)CO)c2n1 [GCV, ganciclovir] |  |  |  |  |  | SCs in lungs (luminescence, p16 mRNA) [3]: reduced IR-induced SCs; SASP in lungs [4]: suppressed the SASP induced by TBI; toxicity to mice [5]: non-toxic to wild-type or p16-3MR mice
OO [Hydrogen peroxide] | 135 | 231 | 0.58 |  |  | 
C=CCNc1c(O)cc2c(O)c1C[C@@H](C)C[C@H](OC)[C@H](O)[C@@H](C)/C=C(\C)[C@H](OC(N)=O)[C@@H](OC)/C=C\C=C(/C)C(=O)N2 [IPI-504] |  |  | 0.2 |  |  | CC50 [1, 10]: 0.14 µM; IC50 [2, 11]: 0.93 µM
O=c1cc(-c2cccc3c2Sc2ccccc2S3)oc(N2CCOCC2)c1 [KU55933] | 5.1 | 30.7 | 0.2 |  |  | 
CC(C)C[C@@H](C=O)NC(=O)[C@H](CC(C)C)NC(=O)[C@H](CC(C)C)NC(=O)OCc1ccccc1 [MG132] (Cbz-Leu-Leu-Leu-aldehyde) |  |  | 0.1 |  |  | CC50 [1, 10]: 0.24 µM; IC50 [2, 11]: 1.92 µM

Compound | CC50 [1, 6] [µM] | IC50 [2, 7] [µM] | LD50 Ratio (NC/SC) [2] | CC50 [1, 8] [µM] | IC50 [2, 9] [µM] | further results
Cc1csc(=NC2CCCCC2)n1/N=C/c1ccc(O)c(O)c1O [MIM1] |  |  | 1.0 | >50.00 | >50.00 | 
O=c1cc(N2CCOCC2)oc2c1ccc1ccccc12 [NU7026] |  |  | 0.7 | 47.02 | 64.03 | 
COc1ccc(C2=N[C@@H](c3ccc(Cl)cc3)[C@@H](c3ccc(Cl)cc3)N2C(=O)N2CCNC(=O)C2)c(OC(C)C)c1 [Nutlin3] |  |  | 0.1 | 5.62 | 82.16 | 
S=C=NCCc1ccccc1 [Phenethyl isothiocyanate (PEITC), Phenethyl isothiocyanate] | < 10 | > 10 | <1.0 |  |  | 
CC1=CC(=O)c2c(O)cccc2C1=O [Plumbagin] | 12.6 | 8.7 | 1.5 |  |  | 
CCCCCCCCCCCCC/C=C/[C@@H](O)[C@@H](N)CO[C@@H]1O[C@H](CO)[C@H](O)[C@H](O)[C@H]1O [Psychosine] |  |  | 0.9 | 46.32 | 52.25 | 
CO[C@H]1C[C@@H]2CC[C@@H](C)[C@@](O)(O2)C(=O)C(=O)N2CCCC[C@H]2C(=O)O[C@H]([C@H](C)C[C@@H]2CC[C@@H](O)[C@H](OC)C2)CC(=O)[C@H](C)/C=C(\C)[C@@H](O)[C@@H](OC)C(=O)[C@H](C)C[C@H](C)/C=C/C=C/C=C/1C [Rapamycin] |  |  | 1.0 |  |  | CC50 [1, 10]: > 0.04 µM; IC50 [2, 11]: > 0.04 µM
Oc1ccc(-c2nc(-c3ccncc3)c(-c3ccc(F)cc3)[nH]2)cc1 [SB202190] | > 800 | > 800 |  |  |  | 
NCCCNCCCCNCCCN [Spermine] | > 40 | > 40 |  |  |  | 
CC(C)(C)c1ccc(C(O)CCCN2CCC(C(O)(c3ccccc3)c3ccccc3)CC2)cc1 (stereo not shown) [Terfenadine] | 6.13 | 6.87 | 0.9 |  |  | 
CC(/C=C/C(=O)NO)=C\[C@@H](C)C(=O)c1ccc(N(C)C)cc1 [Trichostatin A(TSA), Trichostatin A] |  |  | 1.87 | 0.72 | 0.39 | 
O=C(CCCCCCC(=O)Nc1ccccc1)NO [Vorinostat(SAHA), Vorinostat] | 0.85 | 2.21 | 0.38 |  |  | 
COc1c(O)cc(O)c2c(=O)cc(-c3ccccc3)oc12 [Wogonin] |  |  | 1.0 |  |  | CC50 [1, 10]: > 200 µM; IC50 [2, 11]: > 200 µM
COCCn1c2c([n+](Cc3cnccn3)c1C)C(=O)c1ccccc1C2=O [YM-155] | 78.4 | 50 | 1.6 |  |  | 
Arsenic trioxide |  |  | 0.9 | 15.65 | 18.26 | 
Balifomycin A1 |  |  | 1.3 | 29.71 | 22.11 | 

Source: US11331328B2, “Compositions and methods for inhibiting antiapoptotic Bcl-2 proteins as anti-aging agents” (priority 2014, dated 2022)
